Test results taken from patent US20180000085A1, “USE OF PICOLINAMIDE COMPOUNDS WITH FUNGICIDAL ACTIVITY” (DOW AGROSCIENCES LLC, priority 2014, published 2018).

What was measured:
Zymoseptoria tritici = assay: Leaf blotch of wheat (SEPTTR) disease control on wheat seedlings; type: in vivo; set-up: key to SEPTTR 1DP, HV activity at 100 ppm (% control rating) / SEPTTR 3DC, HV activity at 100 ppm (% control rating) / SEPTTR disease control, 1DP / SEPTTR disease control, 3DC / SEPTTR 1DP disease control rating, HV activity / SEPTTR 3DC disease control rating, HV activity / SEPTTR 3DC, LV activity at 125.1 g/H (% Control rating) / SEPTTR 1DP, LV activity at 125.1 g/H (% Control rating) / SEPTTR 1DP disease control rating, LV activity at 125.1 g/H / SEPTTR 3DC disease control rating, LV activity at 125.1 g/H / SEPTTR 3DC disease control rating, HV activity at 100 ppm / SEPTTR 1DP disease control rating, HV activity at 100 ppm / HV activity at 100 ppm SEPTTR 3DC (disease control rating) / HV activity at 100 ppm SEPTTR 1DP (disease control rating) / LV activity at 125.1 g/H SEPTTR 1DP (disease control rating) / LV activity at 125.1 g/H SEPTTR 3DC (disease control rating): A: > 80; B: ≤ 80; C: Not Tested; D: No Activity Observed in the Reported Assay; conditions: for SEPTTR 1DP disease control rating, HV activity / SEPTTR 3DC disease control rating, HV activity: HV application at 100 ppm; for SEPTTR 1DP disease control rating, HV activity / LV activity at 125.1 g/H SEPTTR 1DP (disease control rating) / SEPTTR 1DP, LV activity at 125.1 g/H (% Control rating): 1 Day Protectant; for SEPTTR 1DP disease control rating, HV activity / SEPTTR 3DC disease control rating, HV activity / LV activity at 125.1 g/H SEPTTR 1DP (disease control rating) / LV activity at 125.1 g/H SEPTTR 3DC (disease control rating): wheat leaf blotch; for SEPTTR 3DC disease control rating, HV activity / LV activity at 125.1 g/H SEPTTR 3DC (disease control rating) / SEPTTR 3DC, LV activity at 125.1 g/H (% Control rating): 3 Day Curative
Description: (§1) All fungicides were evaluated using the aforementioned method for their activity vs. all target diseases, unless stated otherwise. Wheat leaf blotch and brown rust activity were also evaluated using track spray applications, in which case the fungicides were formulated as EC formulations, containing 0.1% Trycol 5941 in the spray solutions. Wheat plants (variety Yuma) were grown from seed in a greenhouse in 50% mineral soil/50% soil-less Metro mix until the first leaf was fully emerged, with 7-10 seedlings per pot. These plants were inoculated with an aqueous spore suspension of Zymoseptoria tritici either prior to or after fungicide treatments. After inoculation the plants were kept in 100% relative humidity (one day in a dark dew chamber followed by two to three days in a lighted dew chamber at 20° C.) to permit spores to germinate and infect the leaf. The plants were then transferred to a greenhouse set at 20° C. for disease to develop. When disease symptoms were fully expressed on the 1st leaves of untreated plants, infection levels were assessed on a scale of 0 to 100 percent disease severity. Percent disease control was calculated using the ratio of disease severity on treated plants relative to untreated plants.

Puccinia triticina = assay: Wheat brown rust (PUCCRT) disease control on wheat seedlings; type: in vivo; set-up: key to PUCCRT 3DC, HV activity at 100 ppm (% control rating) / PUCCRT disease control, 3DC / PUCCRT 1DP disease control rating, HV activity / PUCCRT 3DC disease control rating, HV activity / PUCCRT 3DC, LV activity at 125.1 g/H (% Control rating) / PUCCRT 1DP, LV activity at 125.1 g/H (% Control rating) / PUCCRT 3DC disease control rating, LV activity at 125.1 g/H / PUCCRT 1DP disease control rating, LV activity at 125.1 g/H / PUCCRT 3DC disease control rating, HV activity at 100 ppm / PUCCRT 1DP disease control rating, HV activity at 100 ppm / HV activity at 100 ppm PUCCRT 3DC (disease control rating) / LV activity at 125.1 g/H PUCCRT 1DP (disease control rating) / LV activity at 125.1 g/H PUCCRT 3DC (disease control rating): A: > 80; B: ≤ 80; C: Not Tested; D: No Activity Observed in the Reported Assay; conditions: for PUCCRT 1DP disease control rating, HV activity / PUCCRT 3DC disease control rating, HV activity: HV application at 100 ppm; for PUCCRT 1DP disease control rating, HV activity / LV activity at 125.1 g/H PUCCRT 1DP (disease control rating) / PUCCRT 1DP, LV activity at 125.1 g/H (% Control rating): 1 Day Protectant; for PUCCRT 1DP disease control rating, HV activity / PUCCRT 3DC disease control rating, HV activity / LV activity at 125.1 g/H PUCCRT 1DP (disease control rating) / LV activity at 125.1 g/H PUCCRT 3DC (disease control rating): wheat brown rust; for PUCCRT 3DC disease control rating, HV activity / LV activity at 125.1 g/H PUCCRT 3DC (disease control rating) / PUCCRT 3DC, LV activity at 125.1 g/H (% Control rating): 3 Day Curative
Description: as §1, with “plants. Example B: Evaluation of Fungicidal Activity: Wheat Brown Rust (Puccinia triticina; Synonym: Puccinia recondita f. sp. Tritici; Bayer Code PUCCRT) Wheat plants (variety Yuma) were grown from seed in a greenhouse in 50% mineral soil/50% soil-less Metro mix until the first leaf was fully emerged, with 7-10 seedlings per pot. These plants were inoculated with an aqueous spore suspension of Puccinia triticina either prior to or after fungicide treatments. […] The plants were then transferred to a greenhouse set at 24° C. for disease to develop. Fungicide formulation, application and disease assessment followed the procedures as described in the Example A.” for “plants.”

[1] = low volume application, 125.1 g/H, 1 day protectant
[2] = low volume application, 125.1 g/H, 3 day curative
[3] = low volume application, 125.1 g/H
[4] = high volume application, 100 ppm, 1 day protectant
[5] = high volume application, 100 ppm, 3 day curative

CCC(CC)C(Oc1cc(F)cc(Cl)c1)C(C)OC(=O)C(CC(C)C)NC(=O)c1nccc(OC)c1O (stereo not shown) [Cmpd 429]
SEPTTR 1DP disease control rating, HV activity (Zymoseptoria tritici): B (≤ 80)
SEPTTR 3DC disease control rating, HV activity (Zymoseptoria tritici): D
PUCCRT 1DP disease control rating, HV activity (Puccinia triticina): B (≤ 80)
PUCCRT 3DC disease control rating, HV activity (Puccinia triticina): D

COc1ccnc(C(=O)NC(C)C(=O)OC(C)C(Oc2cccc3ccccc23)C(C)C)c1OC(C)=O (stereo not shown) [Cmpd 859]
SEPTTR 1DP disease control rating, LV activity at 125.1 g/H (Zymoseptoria tritici; [1]): B (≤ 80)
SEPTTR 3DC disease control rating, LV activity at 125.1 g/H (Zymoseptoria tritici; [2]): D
PUCCRT 1DP disease control rating, LV activity at 125.1 g/H (Puccinia triticina; [1]): A (> 80)
PUCCRT 3DC disease control rating, LV activity at 125.1 g/H (Puccinia triticina; [2]): B (≤ 80)

CCCOC(CC)C(Oc1ccccc1)C(C)OC(=O)C(CC(C)C)NC(=O)c1nccc(OC)c1OCOC(C)=O (stereo not shown) [Cmpd 448]
SEPTTR 1DP disease control rating, HV activity (Zymoseptoria tritici): B (≤ 80)
SEPTTR 3DC disease control rating, HV activity (Zymoseptoria tritici): B (≤ 80)
PUCCRT 1DP disease control rating, HV activity (Puccinia triticina): A (> 80)
PUCCRT 3DC disease control rating, HV activity (Puccinia triticina): B (≤ 80)

CCOc1ccnc(C(=O)N[C@@H](C)C(=O)O[C@@H](C)[C@@H](CC(C)C)Oc2ccc(Cl)c(OC)c2)c1OC(C)=O [Cmpd 1110]
LV activity at 125.1 g/H SEPTTR 1DP (disease control rating) (Zymoseptoria tritici; [3]): D
LV activity at 125.1 g/H SEPTTR 3DC (disease control rating) (Zymoseptoria tritici; [3]): D
LV activity at 125.1 g/H PUCCRT 1DP (disease control rating) (Puccinia triticina; [3]): D
LV activity at 125.1 g/H PUCCRT 3DC (disease control rating) (Puccinia triticina; [3]): D

COc1ccnc(C(=O)NC(C)C(=O)OC(C)C(Oc2cccc(Cl)c2)C(C)C)c1O (stereo not shown) [Cmpd 432]
SEPTTR 1DP disease control rating, HV activity (Zymoseptoria tritici): A (> 80)
SEPTTR 3DC disease control rating, HV activity (Zymoseptoria tritici): D
PUCCRT 1DP disease control rating, HV activity (Puccinia triticina): A (> 80)
PUCCRT 3DC disease control rating, HV activity (Puccinia triticina): B (≤ 80)

CCCOC[C@H](C)OC(=O)[C@H](C)NC(=O)c1nccc(OC)c1O [Cmpd 334]
SEPTTR 1DP disease control rating, HV activity (Zymoseptoria tritici): B (≤ 80)
SEPTTR 3DC disease control rating, HV activity (Zymoseptoria tritici): B (≤ 80)
PUCCRT 1DP disease control rating, HV activity (Puccinia triticina): D
PUCCRT 3DC disease control rating, HV activity (Puccinia triticina): B (≤ 80)

COc1ccnc(C(=O)NC(C)C(=O)OC(C)(C)[C@H](Oc2ccccc2)C(C)C)c1O (stereo partly drawn) [Cmpd 835, (R)-2,4-dimethyl-3-phenoxypentan-2-yl 2-(3-hydroxy-4-methoxypicolinamido)propanoate]
SEPTTR 1DP disease control rating, HV activity at 100 ppm (Zymoseptoria tritici; [4]): D
SEPTTR 3DC disease control rating, HV activity at 100 ppm (Zymoseptoria tritici; [5]): B (≤ 80)
PUCCRT 1DP disease control rating, HV activity at 100 ppm (Puccinia triticina; [4]): A (> 80)
PUCCRT 3DC disease control rating, HV activity at 100 ppm (Puccinia triticina; [5]): A (> 80)

CC(=O)OCOc1c(Br)ccnc1C(=O)N[C@@H](C)C(=O)O[C@@H](C)[C@H](Oc1ccccc1)C(C)C [Cmpd 1086]
LV activity at 125.1 g/H SEPTTR 1DP (disease control rating) (Zymoseptoria tritici; [3]): D
LV activity at 125.1 g/H SEPTTR 3DC (disease control rating) (Zymoseptoria tritici; [3]): D
LV activity at 125.1 g/H PUCCRT 1DP (disease control rating) (Puccinia triticina; [3]): B (≤ 80)
LV activity at 125.1 g/H PUCCRT 3DC (disease control rating) (Puccinia triticina; [3]): D

COc1ccnc(C(=O)NC(C)C(=O)OC(C)C(Oc2ccc(-c3ccccc3)cc2)C(C)C)c1O (stereo not shown) [Cmpd 388]
SEPTTR 1DP disease control rating, HV activity (Zymoseptoria tritici): A (> 80)
SEPTTR 3DC disease control rating, HV activity (Zymoseptoria tritici): B (≤ 80)
PUCCRT 1DP disease control rating, HV activity (Puccinia triticina): A (> 80)
PUCCRT 3DC disease control rating, HV activity (Puccinia triticina): B (≤ 80)

CCC(CC)[C@@H](Oc1ccccc1Cl)[C@H](C)OC(=O)[C@@H](NC(=O)c1nccc(OC)c1OCOC(C)=O)C(C)C [Cmpd 652]
SEPTTR 1DP, LV activity at 125.1 g/H (% Control rating) (Zymoseptoria tritici; [3]): B (≤ 80)
SEPTTR 3DC, LV activity at 125.1 g/H (% Control rating) (Zymoseptoria tritici; [3]): B (≤ 80)
PUCCRT 1DP, LV activity at 125.1 g/H (% Control rating) (Puccinia triticina; [3]): A (> 80)
PUCCRT 3DC, LV activity at 125.1 g/H (% Control rating) (Puccinia triticina; [3]): B (≤ 80)

COc1ccnc(C(=O)N[C@@H](C)C(=O)O[C@@H](C)[C@H](Oc2ccc(Cl)cc2Cl)C2CCCC2)c1OCOC(C)=O [Cmpd 551]
SEPTTR 1DP, LV activity at 125.1 g/H (% Control rating) (Zymoseptoria tritici; [3]): A (> 80)
SEPTTR 3DC, LV activity at 125.1 g/H (% Control rating) (Zymoseptoria tritici; [3]): B (≤ 80)
PUCCRT 1DP, LV activity at 125.1 g/H (% Control rating) (Puccinia triticina; [3]): A (> 80)
PUCCRT 3DC, LV activity at 125.1 g/H (% Control rating) (Puccinia triticina; [3]): B (≤ 80)

CCCOC[C@@H](Oc1ccccc1)[C@H](C)OC(=O)[C@H](C)NC(=O)c1nccc(OC)c1O [Cmpd 310]
SEPTTR 1DP disease control rating, HV activity (Zymoseptoria tritici): D
SEPTTR 3DC disease control rating, HV activity (Zymoseptoria tritici): B (≤ 80)
PUCCRT 1DP disease control rating, HV activity (Puccinia triticina): A (> 80)
PUCCRT 3DC disease control rating, HV activity (Puccinia triticina): A (> 80)

CCC(CC)C(Oc1ccc(Cl)cc1Cl)C(C)OC(=O)C(CC(C)C)NC(=O)c1nccc(OC)c1O (stereo not shown) [Cmpd 430]
SEPTTR 1DP disease control rating, HV activity (Zymoseptoria tritici): D
SEPTTR 3DC disease control rating, HV activity (Zymoseptoria tritici): D
PUCCRT 1DP disease control rating, HV activity (Puccinia triticina): B (≤ 80)
PUCCRT 3DC disease control rating, HV activity (Puccinia triticina): D

COc1ccnc(C(=O)N[C@H](C(=O)O[C@@H](C)[C@H](Oc2ccc3ccccc3c2)C(C)C)C(C)C)c1OCOC(C)=O [Cmpd 633]
SEPTTR 1DP, LV activity at 125.1 g/H (% Control rating) (Zymoseptoria tritici; [3]): B (≤ 80)
SEPTTR 3DC, LV activity at 125.1 g/H (% Control rating) (Zymoseptoria tritici; [3]): A (> 80)
PUCCRT 1DP, LV activity at 125.1 g/H (% Control rating) (Puccinia triticina; [3]): A (> 80)
PUCCRT 3DC, LV activity at 125.1 g/H (% Control rating) (Puccinia triticina; [3]): A (> 80)

CCC(CC)[C@@H](Oc1ccc(C(F)(F)F)cc1)[C@H](C)OC(=O)[C@@H](NC(=O)c1nccc(OC)c1OCOC(C)=O)C(C)C [Cmpd 653]
SEPTTR 1DP, LV activity at 125.1 g/H (% Control rating) (Zymoseptoria tritici; [3]): D
SEPTTR 3DC, LV activity at 125.1 g/H (% Control rating) (Zymoseptoria tritici; [3]): B (≤ 80)
PUCCRT 1DP, LV activity at 125.1 g/H (% Control rating) (Puccinia triticina; [3]): A (> 80)
PUCCRT 3DC, LV activity at 125.1 g/H (% Control rating) (Puccinia triticina; [3]): B (≤ 80)

COc1ccnc(C(=O)N[C@@H](C)C(=O)O[C@@H](C)[C@H](Oc2ccc(C)cc2)C2CC2)c1OC(C)=O [Cmpd 1058]
LV activity at 125.1 g/H SEPTTR 1DP (disease control rating) (Zymoseptoria tritici; [3]): B (≤ 80)
LV activity at 125.1 g/H SEPTTR 3DC (disease control rating) (Zymoseptoria tritici; [3]): B (≤ 80)
LV activity at 125.1 g/H PUCCRT 1DP (disease control rating) (Puccinia triticina; [3]): A (> 80)
LV activity at 125.1 g/H PUCCRT 3DC (disease control rating) (Puccinia triticina; [3]): A (> 80)
